Laboratory results: patent US9949948B2, “Artemisinin and its derivatives for use in the treatment of trauma haemorrhage and associated conditions” (Queen Mary University of London, priority 2011, dated 2018)

Assays:
Format in all cases: in vivo, Wistar rats
HS-rats = assay: Organ injury and dysfunction induced by trauma haemorrhage (haemorrhagic shock) in the rat
Experimental: Thirty-five male Wistar rats (271±5 g) were anaesthetised with sodium thiopentone (120 mg/kg i.p., LINK Pharmaceuticals Ltd., West Sussex, UK) and anaesthesia was maintained by supplementary injections (˜10 mg/kg i.v.) of sodium thiopentone as and when required. The animals were placed onto a thermostatically controlled heating mat (Harvard Apparatus Ltd., Kent, UK) and body temperature was maintained at 37±1° C. by means of a rectal probe attached to a homeothermic blanket. A tracheotomy was performed by inserting into the lumen of the trachea a small length of polyethylene tubing [Internal Diameter (ID) 1.67 mm, Portex, Kent, UK] to maintain airway patency and facilitate spontaneous respiration.
The right carotid artery was cannulated (ID 0.58 mm, Portex) to facilitate the withdrawal of blood using a heparinised syringe. The right jugular vein was cannulated (ID 0.40 mm, Portex) for the administration of Ringer's Lactate (RL), shed blood, test compounds and/or vehicle. The bladder was also cannulated (ID 0.76 mm, Portex) for the collection of urine. Upon completion of the surgical procedure, cardiovascular parameters were allowed to stabilise for a period of 15 min.
After the stabilisation period, blood was withdrawn via the cannula inserted in the right carotid artery in order to achieve a fall in MAP to 35±5 mmHg within 10 min. From this point onwards, MAP was maintained at 35±5 mmHg for a period of 90 min either by further withdrawal of blood during the compensation phase (MAP rises following blood withdrawal due to sympathetic response) or administration of Ringer's Lactate i.v. during the decompensation phase (animals are unable to increase and maintain high MAP). The average volume of blood withdrawn during haemorrhage was 9.8±0.2 ml (n=31, across all haemorrhaged groups). At 90 min after initiation of haemorrhage, resuscitation was performed with 20 ml/kg Ringer's Lactate i.v. over a period of 10 min and then half the shed blood mixed with 100 u/ml heparinised saline i.v. over a period of 50 min. At the end of 1 h resuscitation, an i.v. infusion of Ringer's Lactate (1.5 ml/kg/h) was started as fluid replacement and maintained for a further 3 h.
Four hours after the onset of resuscitation, 1.2 ml blood was collected from the right carotid artery and decanted into serum gel tubes (Sarstedt, Numbrecht, Germany), after which the heart was removed to terminate the experiment. The samples were centrifuged (9900 rpm for 3 min) to separate serum from which urea, creatinine, aspartate aminotransferase (AST), alanine aminotransferase (ALT) and creatinine kinase (CK) were measured within 24 hours (Idexx Laboratories Ltd., West Yorkshire, UK). Urine collected during the last 3 h of the experiment was analysed for creatinine levels in order to estimate creatinine clearance as an indicator of glomerular dysfunction and was calculated as follows: […]
Sham-operated rats underwent identical surgical procedures but without haemorrhage or resuscitation.

[1] = test system: rats subjected to regional myocardial ischaemia and reperfusion; assay: Regional myocardial ischaemia and reperfusion, vehicle 5% sodium bicarbonate; conditions: for infarct size (percentage of the AAR): control 57.6±2.1%; for area at risk: compared to vehicle treated rats
Experimental: (§1) Rats were anaesthetised with thiopentone sodium (Intraval® 120 mg/kg i.p.). Anaesthesia was maintained by supplementary injections of thiopentone sodium as required. The trachea was cannulated and the animals were ventilated with a Harvard ventilator (inspiratory oxygen concentration: 30%; 70 strokes/min, tidal volume: 8-10 ml/kg). Body temperature was maintained at 37±1° C. with the aid of a rectal probe thermometer attached to a homeothermic blanket unit (Harvard Apparatus Ltd., Edenbridge, Kent, U.K.). […] The right jugular vein was then cannulated for the administration of drugs and saline. A para-sternal thoracotomy was then performed, using an Electrosurgery device to cauterize the intercostals arteries before cutting through three ribs. The chest was retracted and pericardium dissected from the heart. The left anterior descending (LAD) coronary artery was isolated and a snare occluder was placed around the LAD. The retractor was then removed and the animal was allowed to stabilise for 15 min.
(§2) The occluder was tightened at time 0. After 25 min of LAD-occlusion, the occluder was released to allow reperfusion of the previously ischemic myocardium (2 h). Haemodynamic parameters were continuously monitored. Baseline readings were taken prior to treatment, and, myocardial ischaemia reperfusion (IR) injury. The pressure rate index (PRI), a relative indicator of myocardial oxygen consumption was calculated as a product of the MAP (mmHg) and HR (beats/minute-bpm) and expressed in mm Hg bpm×10^−3.
(§3) At the end of the 2 h reperfusion period, the LAD was re-occluded and 1 ml of Evans Blue dye (2% w/v) was injected into the animal, via the jugular vein. The Evans Blue dye stains the tissue it can circulate through, therefore the non-perfused vascular (occluded) tissue remains un-coloured. Each animal was killed with an over-dose of anaesthetic, the heart excised, and excess dye washed off. […] The ischaemic and non-ischaemic tissue was weighed, and the AAR expressed as a percentage of the left ventricle. The tissue from the AAR was cut into small pieces and incubated with p-nitroblue tetrazolium (NBT, 0.5 mg/ml) for 30 min at 37° C. NBT is a reducing agent that reacts with dehydrogenases present in viable (non-infarcted) tissue to produce a dark blue formazan. Infarcted tissue (non-viable) will not have dehydrogenase activity and will therefore fail to stain. The stained tissue was separated from the infarcted tissue, weighed, and the infarct size expressed as a percentage of the AAR.
(§4) Sham-operated rats were subjected to surgical procedure without myocardial ischaemia and reperfusion.

[2] = test system: rats subjected to regional myocardial ischaemia and reperfusion; assay: Regional myocardial ischaemia and reperfusion, artesunate and dihydroartemisinin
Experimental: as §1, with “Kent.” for “Kent,”
as §2, §3, §4

[3] = 1 mg/kg i.v. on resuscitation, P>0.05
[4] = both 3 and 10 mg/kg i.v. on resuscitation, P<0.05
[5] = 1 mg/kg i.v. upon reperfusion, vs control
[6] = bolus 0.3, 1 or 10 mg/kg upon reperfusion, P>0.05 vs Control
[7] = bolus 1 mg/kg upon reperfusion, P>0.05 vs Control

SMILES: C[C@H]1[C@H](OC(=O)CCC(=O)O)O[C@@H]2O[C@@]3(C)CC[C@H]4[C@H](C)CC[C@@H]1[C@@]24OO3 [artesunate]
- rise in serum ALT (HS-rats; [3]): no significant effect
- rise in serum AST (HS-rats; [3]): no significant effect
- rise in serum creatinine (HS-rats; [3]): no significant effect
- rise in serum creatinine kinase (HS-rats; [3]): no significant effect
- rise in serum urea (HS-rats; [3]): no significant effect
- rise in serum urea (HS-rats; 3 mg/kg i.v. on resuscitation, 4 h after onset of resuscitation, P<0.05 vs HS-rats): significantly attenuated
- rise in serum creatinine (HS-rats; 3 mg/kg i.v. on resuscitation, P<0.005 vs HS-rats): significantly attenuated
- rise in serum creatinine (HS-rats; 10 mg/kg i.v. on resuscitation, P<0.005): significantly attenuated
- decline in MAP caused by haemorrhage during the resuscitation phase (HS-rats; 1, 3 or 10 mg/kg i.v. on resuscitation, P>0.05): failed to attenuate
- rise in serum ALT (HS-rats; both 3 and 10 mg/kg i.v. on resuscitation, P<0.005): significantly attenuated
- rise in serum AST (HS-rats; [4]): significantly attenuated
- rise in serum creatinine kinase (HS-rats; [4]): significantly attenuated
- infarct size (percentage of the AAR) ([1]; 0.3 mg/kg i.v. bolus upon reperfusion): 44.0±2.61%
- area at risk ([1]; 0.3 mg/kg): no significant effect
- Infarct size reduction [1, 5]: 40%
- infarct size (percentage of the AAR) ([1]; 1 mg/kg i.v. upon reperfusion, P<0.05): 42.6±1.1%
- area at risk ([1]; 1 mg/kg): no significant effect
- infarct size ([1]; 10 mg/kg i.v. upon reperfusion, P>0.05): no significant effect
- area at risk ([1]; 10 mg/kg): no significant effect
- fall in mean arterial blood pressure caused by myocardial ischaemia and reperfusion [1, 6]: did not attenuate
- heart rate [1, 6]: did not have a significant effect
- infarct size (percentage of the AAR) ([2]; 1 mg/kg i.v. bolus upon reperfusion, from 59.8±3.2, P<0.05): 36.0±1.1%
- Infarct size reduction [2, 5]: 40%
- area at risk ([2]; 1 mg/kg, compared to vehicle treated rats): no significant effect
- fall in mean arterial blood pressure caused by myocardial ischaemia and reperfusion [2, 7]: did not attenuate
- heart rate [2, 7]: did not have a significant effect
